Experimental data taken from US7396842B2, “Five-membered cyclic compounds” (Dianippon Sumitomo Pharma Co., Ltd., priority 2002, dated 2008).
Read-outs that look alike come from different tables or passages of the source.

Target: T1, SMBS on rat lung membranes (Rattus norvegicus, UniProt A0A8I6A822)
T1 construct: from tissue; host or cells: rat lung membranes (SD male rats)
Assay: Receptor binding of the compound in rat lung membranes ([125I]-iodo-cyanopindolol ligand binding assay; Experiments 1 and 4)
Details: read-out: Binding Activity (30 μM)
Protocol: Evaluation Test on Receptor Binding of the Compound in Rat Lung Membranes:
This experiment was carried out according to the method disclosed in Sugasawa et al., (Sugasawa, T. et al., J. Biol. Chem., 272, 21244-21252(1997)).
Preparation of Rat Lung Membranes
The air tube and blood vessels were removed from the lung excised from SD male rats (7-weeks old when used, purchased from Charles River Japan, Inc.), and the lung was chopped, and washed with ice-cold tris-saline buffer (10 mM Tris-HCl, 154 mM sodium chloride, pH 7.4). The lung was homogenized by PHYSCOTRON (maximum speed: 1 minute) in a buffer for homogenization (tris-saline buffer containing 1 mM ethylenediaminetetraacetate (EDTA), 1 mM 4-(2-aminoethyl)-benzenesulfonyl fluoride (AEBSF), 5 μg/ml aprotinin, 5 μg/ml leupeptin) under ice-cooling. The mixture was centrifuged at a low speed (1500×g, 20 minutes, 4° C.), and the supernatant was super-centrifuged (100000×g, 20 minutes, 4° C.). The pellets thus obtained were suspended in tris-saline buffer, and kept at −80° C. The concentration of protein was measured by a Protein Assay Kit manufactured by Bio-Rad using bovine serum albumin (BSA) as standard.
To each well of a protein-non-adsorbent round-bottom 96-well assay plate (purchased from IWAKI GLASS CO., LTD.) was added tris-saline buffer (200 μl) containing 1 nM [^125I]-iodo-cyanopindolol (purchased from Amarsham), 10 μM serotonin, 20 μM dl-propranol, 10 μM phentoramine, 1.1 mM ascorbic acid and 100 μg lung membranes, and the mixture was mixed well by pipetting, and the plate was incubated at 37° C. for 30 minutes. Test compounds were dissolved in 100% dimethylsulfoxide, and added to the plate in an amount of 2 μl (final concentration of DMSO: 1%). In order to obtain non-specific binding, L-threo-3-(3,4-dihydroxyphenyl)-N-[3-(4-fluorophenyl)propyl]-serinepyrrolidinamide was added at a final concentration of 100 μM instead of test compound. During this period, 0.3% polyethyleneimine (PEI)/tris-saline buffer (100 μl) was added to a multiscreen plate (96-well B-glassfiber, milipore Cat. No. MAFB NOB10) and the plate was incubated for more than 30 minutes. The plate was washed by vacuum filtration (by adding ice-cold tris-saline buffer (200 μl) and then vacuum filtration), and the reaction solution on the 96-well assay plate was washed by vacuum filtration onto the multiscreen plate for four times. The B-glassfiber paper filter at the bottom of the multiscreen plate was punched out, and the γ-ray amount of [^125I]-iodo-cyanopindolol being trapped onto the paper filter was measured as binding amount. The binding amount in the presence of DMSO (final concentration: 1%) was regarded as total binding, and the binding in the presence of L-threo-3-(3,4-dihydroxyphenyl) -N-[3-(4-fluorophenyl)-propyl]serinepyrrolidinamide was regarded as non-specific binding. The value which is calculated by subtracting non-specific binding from total binding is specific binding. The binding activity of the compound can be calculated by the following equation, and expressed in a ratio of inhibiting the specific binding of [^125I]-iodo-cyanopindorol to SMBS on rat lung membranes.
In the same manner to in Experiment 1, the receptor binding assay was carried out on the present compounds by using the rat lung membranes.

[1] = Table 43, concentration tested 30 μM, rat lung membranes, Experiment 4
[2] = Table 44, concentration tested 30 μM, rat lung membranes, Experiment 4
[3] = ratio of inhibiting the specific binding of [125I]-iodo-cyanopindolol, test concentration 30 μM, rat lung membranes

T1 sequence (A0A8I6A822 27-587): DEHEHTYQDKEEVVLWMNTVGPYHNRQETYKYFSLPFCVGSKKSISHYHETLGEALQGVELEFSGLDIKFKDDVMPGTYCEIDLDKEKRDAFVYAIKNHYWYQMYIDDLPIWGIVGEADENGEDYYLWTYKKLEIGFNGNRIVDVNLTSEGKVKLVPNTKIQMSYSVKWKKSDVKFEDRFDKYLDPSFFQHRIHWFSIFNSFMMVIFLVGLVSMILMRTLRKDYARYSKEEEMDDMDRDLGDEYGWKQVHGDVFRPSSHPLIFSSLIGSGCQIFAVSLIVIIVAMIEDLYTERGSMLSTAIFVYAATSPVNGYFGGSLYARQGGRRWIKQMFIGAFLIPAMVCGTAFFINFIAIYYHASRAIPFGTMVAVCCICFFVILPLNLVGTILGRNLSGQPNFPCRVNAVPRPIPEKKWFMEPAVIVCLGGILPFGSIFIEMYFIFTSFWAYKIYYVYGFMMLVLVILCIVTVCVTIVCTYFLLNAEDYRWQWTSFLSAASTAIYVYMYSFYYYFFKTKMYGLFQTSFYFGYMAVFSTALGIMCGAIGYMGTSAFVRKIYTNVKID

Structure (SMILES) | inhibition at 30 µM [1] | inhibition at 30 µM [2] | further results
COCCNC(=O)NCCCn1c(-c2ccc(N3CCOCC3)cc2)cs/c1=N\c1ccc(F)cc1 [Example 355] | 89% | – | –
O=C(CN1CCCC1)NCCCn1c(-c2ccc(N3CCOCC3)cc2)csc1=Nc1ccc(F)cc1 [Example 357, N-{3-[2-[(4-Fluorophenyl)imino]-4-[4-(morpholino)phenyl]thiazol-3(2H)-yl]propyl}-2-(1-pyrrolidinyl)acetamide] | 86% | – | –
O=C(CNc1ccccc1)NCCCn1c(-c2ccc(N3CCOCC3)cc2)cs/c1=N\c1ccc(F)cc1 [Example 359] | 82% | – | –
CN(C)CC(=O)NCCCn1c(-c2ccc(N3CCOCC3)cc2)cs/c1=N\c1ccc(F)cc1 [Example 361] | 88% | – | –
COc1ccc(C/N=c2\scc(-c3ccc(OC(F)(F)F)cc3)n2CCCN)c(OC)c1 [Example 362, 3-[2-[(2,4-Dimethoxybenzyl)imino]-4-[4-(trifluoromethoxy)phenyl]-1,3-thiazol-3(2H)-yl]-1-propanamine] | 117% | – | –
CCOC(=O)NCCCn1c(-c2ccc(OC(F)(F)F)cc2)cs/c1=N\Cc1ccc(Cl)cc1 [Example 368] | – | 100% | –
COc1ccc(C/N=c2\scc(-c3ccc(OC(F)(F)F)cc3)n2CCCNC(C)=O)c(OC)c1 [Example 373, N-{3-[2-[(2,4-dimethoxybenzyl)imino]-4-[4-(trifluoromethoxy)phenyl]-1,3-thiazol-3(2H)-yl]propyl}acetamide] | 90% | – | –
COCC(=O)NCCCn1c(-c2ccc(OC(F)(F)F)cc2)cs/c1=N\Cc1ccc(OC)cc1OC [Example 383, N-{3-[2-[(2,4-Dimethoxybenzyl)imino]-4-[4-(trifluoromethoxy)phenyl]-1,3-thiazol-3(2H)-yl]propyl}-2-methoxyacetamide] | 84% | – | –
O=C(CN1CCCC1)NCCCn1c(-c2ccc(OC(F)(F)F)cc2)cs/c1=N\Cc1ccc(Cl)cc1 [Example 384, N-{3-[2-[(4-Chlorobenzyl)imino]-4-[4-(trifluoromethoxy)phenyl]-1,3-thiazol-3(2H)-yl]propyl}-2-(1-pyrrolidinyl)acetamide] | 107% | – | –
O=C(NCCCl)NCCCn1c(-c2ccc(OC(F)(F)F)cc2)cs/c1=N\Cc1ccc(Cl)cc1 [Example 390] | – | – | inhibition at 30 µM: 120%
O=C(NCCCn1c(-c2ccc(OC(F)(F)F)cc2)cs/c1=N\Cc1ccc(Cl)cc1)Nc1ccc(F)cc1 [Example 393] | – | 80% | –
CCNC(=O)NCCCn1c(-c2ccc(OC)cc2)cs/c1=N\CCc1ccncc1 [Example 398] | – | 37% | –
CCNC(=O)NCCCn1c(-c2ccc(F)cc2)cs/c1=N\Cc1ccc(Cl)cc1OC [Example 402, N-{3-[2-[(4-Chloro-2-methoxybenzyl)imino]-4-(4-fluorophenyl)-1,3-thiazol-3(2H)-yl]propyl}-N′-ethylurea] | 79% | – | –
CN(C)C(=O)NCCCn1c(-c2ccc(OC(F)(F)F)cc2)cs/c1=N\Cc1ccc(Cl)cc1 [Example 404] | – | 109% | –
O=C(NCCCn1c(-c2ccc(OC(F)(F)F)cc2)cs/c1=N\Cc1ccc(Cl)cc1)N1CCOCC1 [Example 405] | – | 115% | –
O=C(NCCCn1c(-c2ccc(OC(F)(F)F)cc2)cs/c1=N\Cc1ccc(Cl)cc1)NCCN1CCCC1 [Example 408] | – | 121% | –
COCCNC(=O)NCCCn1c(-c2ccc(OC(F)(F)F)cc2)cs/c1=N\Cc1ccc(Cl)cc1 [Example 409, N-{3-[2-[(4-Chlorobenzyl)imino]-4-[4-(trifluoromethoxy)phenyl]-1,3-thiazol-3(2H)-yl]propyl}-N′-(2-methoxyethyl)urea] | 89% | – | –
COCCNCCCn1c(-c2ccc(F)cc2)cs/c1=N\Cc1ccc(Cl)cc1OC [Example 411, 3-[2-[(4-Chloro-2-methoxybenzyl)imino]-4-(4-fluorophenyl)-1,3-thiazol-3(2H)-yl]-(2-methoxyethyl)-1-propanamine] | 118% | – | –
COc1ccc(C/N=c2\scc(-c3ccc(OC(F)(F)F)cc3)n2CCCNCC(F)(F)F)c(OC)c1 [Example 413] | – | 96% | –
CCNC(=O)CNCCCn1c(-c2ccc(OC(F)(F)F)cc2)cs/c1=N\Cc1ccc(Cl)cc1 [Example 417, N^2-{3-[2-[(4-Chlorobenzyl)imino]-4-[4-(trifluoromethoxy)phenyl]-1,3-thiazol-3(2H)-yl]propyl}-N^1-ethylglycinamide] | 113% | – | –

Structure (SMILES) | inhibition at 30 µM [1] | inhibition at 30 µM [2] | further results
O=C(CNCCCn1c(-c2ccc(OC(F)(F)F)cc2)cs/c1=N\Cc1ccc(Cl)cc1)NCCO [Example 423] | – | 113% | –
O=C(O)CNCCCn1c(-c2ccc(OC(F)(F)F)cc2)cs/c1=N\Cc1ccc(Cl)cc1 [Example 427, N-{3-[2-[(4-Chlorobenzyl)imino]-4-[4-(trifluoromethoxy)phenyl]-1,3-thiazol-3(2H)-yl]propyl}glycine] | – | 100% | –
O=C(O)CCNCCCn1c(-c2ccc(OC(F)(F)F)cc2)cs/c1=N\Cc1ccc(Cl)cc1 [Example 428] | – | 103% | –
COc1cc(Cl)ccc1C/N=c1\scc(-c2ccc(F)cc2)n1CCCNC(=N)N [Example 429, N′-{3-[2-[(4-Chloro-2-methoxybenzyl)imino]-4-(4-fluorophenyl)-1,3-thiazol-3(2H)-yl]propyl}guanidine] | – | 103% | –
CCS(=O)(=O)NCCCn1c(-c2ccc(OC(F)(F)F)cc2)cs/c1=N\Cc1ccc(Cl)cc1 [Example 430, N′-{3-[2-[(4-Chlorobenzyl)imino]-4-[4-(trifluoromethoxy)phenyl]-1,3-thiazol-3(2H)-yl]propyl}ethanesulfonamide] | – | 89% | –
COc1ccc(C(=O)/N=c2\scc(C(=O)Nc3ccc(Cl)cc3)n2CCCN)c(OC)c1 [Example 431, 3-(3-Aminopropyl)-N-(4-chlorophenyl)-2-[(2,4-dimethoxybenzoyl)imino]-2,3-dihydro-1,3-thiazol-4-carboxamide] | – | 95% | –
COc1ccc(C(=O)/N=c2\scc(C(=O)N3CCc4ccccc4C3)n2CCCN)c(OC)c1 [Example 432] | – | 42% | –
COc1ccc(C(=O)/N=c2\scc(C(=O)NCCCCc3ccccc3)n2CCCN)c(OC)c1 [Example 435] | – | 93% | –
COc1ccc(C(=O)/N=c2\scc(-c3ccc(OC(F)(F)F)cc3)n2CCCN)c(OC)c1 [Example 437] | – | 106% | –
NCCCn1c(-c2ccc(OC(F)(F)F)cc2)cs/c1=N\C(=O)c1ccco1 [Example 441] | – | 61% | –
CCOC(=O)NCCCn1c(-c2ccc(OC(F)(F)F)cc2)cs/c1=N\C(=O)c1ccc(OC)cc1OC [Example 444] | – | 99% | –
CCCC(=O)NCCCn1c(-c2ccc(OC(F)(F)F)cc2)cs/c1=N\C(=O)c1ccc(OC)cc1OC [Example 447] | – | 89% | –
CCCCCC(=O)NCCCn1c(-c2ccc(OC(F)(F)F)cc2)cs/c1=N\C(=O)c1ccc(OC)cc1OC [Example 448] | – | 77% | –
CC(=O)NCCCn1c(-c2ccc(OC(F)(F)F)cc2)cs/c1=N\C(=O)c1ccccn1 [Example 449] | – | 71% | –
CC(=O)NCCCn1c(-c2ccc(OC(F)(F)F)cc2)cs/c1=N\C(=O)c1ccncc1 [Example 452] | – | 84% | –
CC(=O)NCCCn1c(-c2ccc(OC(F)(F)F)cc2)cs/c1=N\C(=O)CCc1ccccc1 [Example 454] | – | 38% | –
CC(=O)NCCCn1c(-c2ccc(OC(F)(F)F)cc2)cs/c1=N\C(=O)CC1CCCC1 [Example 458] | – | 87% | –
COc1ccc(C(=O)/N=c2\scc(C(=O)Nc3ccc(Cl)cc3)n2CCCNC(C)=O)c(OC)c1 [Example 461] | – | – | inhibition at 30 µM [3]: 42%
COc1ccc(C(=O)/N=c2\scc(C(=O)NCc3ccc(Cl)cc3)n2CCCNC(C)=O)c(OC)c1 [Example 463] | – | – | inhibition at 30 µM [3]: 10%
